Experimental data as given in patent US8992783B2, “Process for enantioseparation of chiral systems with compound formation using two subsequent crystallization steps” (Max-Planck-Gessellschaft zur Förderung der Wissenschaften …, priority 2008, dated 2015).
Where two headings read alike, the source gives them in different places.

Settings: methionine enantiomers in water

SMILES: CSCC[C@H](N)C(=O)O (racemic) [methionine]
- Solubility at eutectic composition (274.15 K): ′ 3.83 wt %
- Solubility at eutectic composition (333.15 K): ′ 9.38 wt %
